Several values for one entry are separate records, joined by “and”; a condition that tells them apart may be missing. Equal values may be shown once. Entries after “also recorded” stand apart in the source; their conditions may differ. Read-outs that look alike come from different tables or passages of the source. No end group written: not given here.
Experiments:
Rlig1-AMP [1] = biological target: T1, Rlig1-AMP (Homo sapiens, UniProt Q8N999); experiment: Radioactive RNA ligation assay (hit validation, 10 µM test and IC50 determination); assay type: biochemical; details: for inhibition in radioactive ligation assay (hit validation): 10 µM compound, 37 °C, 20 min; for inhibition of Rlig1-AMP ligation (urea-PAGE): 10 μM compound, 500 nM Rlig1-AMP, 20 min 37 °C
T1 construct: made in house; host or cells: E. coli BL21 (DE3), pET15b-Rlig1

HEK293 cells = experiment: Cell viability assay of HEK293 cells treated with inhibitors (CellTiter-Glo)
in vitro = details: human
Rlig1-AMP [2] = biological target: T1, Rlig1-AMP; experiment: FRET-based high-throughput screening of inhibitors for Rlig1-AMP; assay type: biochemical
[3] = log(inhibitor) vs. response, variable slope (four parameters)
[4] = HTS hits, difference of raw data w/o and w enzyme
[5] = HTS hits, normalised value of 1-D Distance
[6] = HTS hits, difference of raw data without and with enzyme

T1 sequence (Q8N999 whole entry): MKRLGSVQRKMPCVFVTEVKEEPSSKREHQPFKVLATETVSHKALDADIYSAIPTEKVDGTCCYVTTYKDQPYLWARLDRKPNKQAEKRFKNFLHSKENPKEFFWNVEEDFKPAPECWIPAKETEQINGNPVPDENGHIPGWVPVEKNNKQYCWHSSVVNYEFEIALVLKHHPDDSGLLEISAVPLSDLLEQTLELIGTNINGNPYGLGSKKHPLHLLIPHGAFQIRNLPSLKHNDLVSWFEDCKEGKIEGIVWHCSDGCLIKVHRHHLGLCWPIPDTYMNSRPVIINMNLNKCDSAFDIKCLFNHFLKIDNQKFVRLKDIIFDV

Compound: CN(C)C/C=C/C(=O)Nc1ccc(C(=O)Nc2cccc(Nc3ncc(Cl)c(-c4c[nH]c5ccccc45)n3)c2)cc1.Cl [Compound 2, THZ1 (Hydrochloride), reference compound]
- inhibition in radioactive ligation assay (hit validation) (Rlig1-AMP [1]): above 70%

Compound: Cc1cc(-c2cc(O)ccc2Cl)cc2nnc(Nc3ccc(OCCN4CCCC4)cc3)nc12.Cl [Compound 6, reference compound]
- inhibition in radioactive ligation assay (hit validation) (Rlig1-AMP [1]): above 70%

Compound: Cn1nc(-c2ccc(C(F)(F)F)cc2)nc2c(=O)n(C)c(=O)nc1-2 [Compound 11, reference compound]
- IC50 (in words) (Rlig1-AMP [1]; concentration-dependent radioactive ligation assay): nanomolar range

Compound: CN(C)Cc1ccc(-c2cnn3c(-c4cccc(NC(=O)c5cccc(C(F)(F)F)c5)c4)ccnc23)cc1 [Compound 17, reference compound]
- inhibition in radioactive ligation assay (hit validation) (Rlig1-AMP [1]): above 70%

Compound: Cc1cc(Nc2ccc(NC(=O)c3ccc(Nc4cccc5ccccc45)cc3)cc2)nc(N)n1 [Compound 44]
- inhibition of Rlig1-AMP ligation (urea-PAGE) (Rlig1-AMP [1]): inactive

Compound: Cc1cc(Nc2ccc(NC(=O)c3ccc(Nc4ccnc5[nH]ccc45)cc3)cc2)nc(N)n1 [Compound 46]
- inhibition of Rlig1-AMP ligation (urea-PAGE) (Rlig1-AMP [1]): Ligation was inhibited; also recorded: inhibited ligase activity
- HillSlope (best-fit value) (Rlig1-AMP [1]; four-parameter fit): 6.864
- Span (best-fit value) (Rlig1-AMP [1]; four-parameter fit): 90.69
- IC50 (Rlig1-AMP [1]; four-parameter fit, n = 3, read-out: IC50 (best-fit value)): 7.1 µM
- inhibition at 30 µM (Rlig1-AMP [1]; log Compound [µM] 1.47712, replicates I-III, read-out: percentage inhibition (dose response curve for IC50)): 100%
- LogIC50 (best-fit value) (Rlig1-AMP [1]; log of µM, four-parameter fit): 0.8514
- Bottom (best-fit value) (Rlig1-AMP [1]; [3]): 7.468
- Top (best-fit value) (Rlig1-AMP [1]; [3]): 98.16
- cytotoxicity (in words) (HEK293 cells; HEK293, 24 h, up to 30 μM): comparatively high cytotoxicity
- IC50 (Figure 3D: EC50 values for plot; log(inhibitor) vs. response -- Variable slope (four parameters)) (HEK293 cells; HEK293 cell viability, fit per plate (3 plates, 4 technical replicates each), highest tested concentration 30 µM): 8.158 µM and 9.993 µM and 11.5211 µM
- LogIC50 (log(inhibitor) vs. response -- Variable slope (four parameters)) (HEK293 cells; HEK293 cell viability, fit per plate (3 plates, 4 technical replicates each), log of [µM]): 0.9116 and 0.9997 and 1.0615
- EC50 (HEK293 cells; Homo sapiens, HEK293, 24 h): 9.42 µM
- viability at 24 h, 0.234375 µM (in vitro): 104%
- viability at 24 h, 0.46875 µM (in vitro): 98.9%
- viability at 24 h, 0.9375 µM (in vitro): 97.1%
- viability at 24 h, 1.875 µM (in vitro): 96.8%
- viability at 24 h, 3.75 µM (in vitro): 94.8%
- viability at 24 h, 7.5 µM (in vitro): 64.8%
- viability at 24 h, 15 µM (in vitro): 23.1%
- viability at 24 h, 30 µM (in vitro): 7.96%

Compound: CC(C)c1cccc(C(C)C)c1O [Propofol]
- 1-D Distance (Rlig1-AMP [2]): 1959
- Raw data [w Enyzm] (Rlig1-AMP [2]): 8754
- Raw data [w/o Enzym] (Rlig1-AMP [2]): 10713

Compound: CCC(O)C(=O)[O-].[Na+] (stereo not shown) [Sodium 2-hydroxybutanoate]
- 1-D Distance (Rlig1-AMP [2]; [4]): 1888
- 1-D Distance.npi (Rlig1-AMP [2]; [5]): 73.0807
- Raw data [w Enyzm] (Rlig1-AMP [2]; HTS hits, with enzyme): 8789
- Raw data [w/o Enzym] (Rlig1-AMP [2]; HTS hits, without enzyme): 10677

Compound: O.O=C1C=CC[C@@H]2[C@H]3CCCN4CCC[C@@H](CN12)[C@@H]34 [Sophocarpine (monohydrate)]
- 1-D Distance (Rlig1-AMP [2]; [4]): 1834
- 1-D Distance.npi (Rlig1-AMP [2]; [5]): 71.833
- Raw data [w Enyzm] (Rlig1-AMP [2]; HTS hits, with enzyme): 8885
- Raw data [w/o Enzym] (Rlig1-AMP [2]; HTS hits, without enzyme): 10719

Compound: COc1cc(S(=O)(=O)[O-])ccc1O.[K+] [Sulfogaiacol]
- 1-D Distance.npi (Rlig1-AMP [2]; sheet HTS hits, MedChemExpress library): 81.4409
- 1-D Distance (Rlig1-AMP [2]; sheet HTS hits, difference of raw data w/o and w enzyme): 1427
- Raw data [w Enyzm] (Rlig1-AMP [2]; sheet HTS hits, with enzyme): 8908
- Raw data [w/o Enzym] (Rlig1-AMP [2]; sheet HTS hits, without enzyme): 10335

Compound: Cn1ncnc2c(=O)n(C)c(=O)nc1-2 [Toxoflavin]
- 1-D Distance (Rlig1-AMP [2]; [4]): 1019
- 1-D Distance.npi (Rlig1-AMP [2]; HTS hits, normalized value (npi)): 89.8188
- Raw data [w Enyzm] (Rlig1-AMP [2]; HTS hits, with enzyme): 16186
- Raw data [w/o Enzym] (Rlig1-AMP [2]; HTS hits, without enzyme): 17205

Compound: C/C=C/c1cc(OC)c(OC)cc1OC [alpha-Asarone]
- 1-D Distance (Rlig1-AMP [2]; [4]): 1762
- 1-D Distance.npi (Rlig1-AMP [2]; [5]): 73.1231
- Raw data [w Enyzm] (Rlig1-AMP [2]; HTS hits, with enzyme): 8891
- Raw data [w/o Enzym] (Rlig1-AMP [2]; HTS hits, without enzyme): 10653

Compound: LL-37, human (TFA)
- 1-D Distance.npi (Rlig1-AMP [2]; HTS hits, MedChemExpress library): 104.017
- 1-D Distance (Rlig1-AMP [2]; [6]): 99
- Raw data [w Enyzm] (Rlig1-AMP [2]; HTS hits, with enzyme): 6495
- Raw data [w/o Enzym] (Rlig1-AMP [2]; HTS hits, without enzyme): 6396

Compound: Lactoferrin (17-41) (acetate) (TKCFQWQRNMRKVRGPPVSCIKRDS; ends and bridges not checked; also: acetate salt; UniProt P02788 36-60, looked up, fragment)
- 1-D Distance (Rlig1-AMP [2]; [4]): 1421
- 1-D Distance.npi (Rlig1-AMP [2]; [5]): 74.4696
- Raw data [w Enyzm] (Rlig1-AMP [2]; HTS hits, with enzyme): 8755
- Raw data [w/o Enzym] (Rlig1-AMP [2]; HTS hits, without enzyme): 10176

Compound: Plicamycin
- 1-D Distance (Rlig1-AMP [2]; [6]): 1957
- Raw data [w Enyzm] (Rlig1-AMP [2]; HTS hits, with enzyme): 9254
- Raw data [w/o Enzym] (Rlig1-AMP [2]; HTS hits, without enzyme): 11211

Compound: Verteporfin
- 1-D Distance (Rlig1-AMP [2]; [4]): 1236
- 1-D Distance.npi (Rlig1-AMP [2]; [5]): 82.5479
- Raw data [w Enyzm] (Rlig1-AMP [2]; HTS hits, with enzyme): 1492
- Raw data [w/o Enzym] (Rlig1-AMP [2]; HTS hits, without enzyme): 2728

Compound: Vitamin B12
- 1-D Distance (Rlig1-AMP [2]; [4]): 580
- 1-D Distance.npi (Rlig1-AMP [2]; [5]): 94.3021
- Raw data [w Enyzm] (Rlig1-AMP [2]; HTS hits, with enzyme): 5329
- Raw data [w/o Enzym] (Rlig1-AMP [2]; HTS hits, without enzyme): 5909
